Where two headings read alike, the source gives them in different places.
Assays:
rainbow trout [1] = settings: rainbow trout fed two months; feed with 80 ppm astaxanthin, alone or with 160 ppm proantocyanidin (0.1% KPA-F); cited from earlier work
rainbow trout [2] = settings: oral via feed; cited from earlier work
salmon (S. salar) [3] = assay: Feeding test with ferulic acid in astaxanthin feed, retention of astaxanthin in fish muscle (Example 2); type: in vivo, Salmo salar
Protocol: The test was carried out with salmon (S. salar) from May 4th to August 20th. The test was carried out in vessels having a diameter of 1 metre. The vessels were filled with seawater and the water temperature varied between 8.3 and 11.8° C. in the period. There were 30 fish in each vessel having a mean weight of 0.2 kg at the start. The control group consisted of two vessels per diet, while the test group consisted of one vessel at medium inclusion of ferulic acid and two vessels per diet at low inclusion of ferulic acid.
The feed had the following main component composition: 44.5% protein; 28.2% fat; 7.6% water and 7.2% ash.
The test feed had the same composition as shown in table 2 and had in addition added ferulic acid as dry powder in meal mix before extrusion. Ferulic acid was added at two levels: low and medium, where the levels are defined as in example 1.
Each feed was formulated with two levels of astaxanthin, 20 and 40 mg/kg.
At the termination of the test the fish weighed 0.7 kg as an average. […] The fish were filleted and the fillet analysed for astaxanthin. Thirty fish per vessel were analysed individually with NIR.

sea bream = settings: cited from earlier work
salmon (S. salar) [4] = assay: Feeding test with gallic acid in astaxanthin feed, retention of astaxanthin in fish muscle (Example 1); type: in vivo, Salmo salar; settings: for retention of astaxanthin in fish muscle: 5.5 months
Protocol: The test was carried out on salmon (S. salar) over a 5.5-month period between November 11 and May 5. The test was carried out in vessels having a diameter of 1 metre. The vessels were filled with seawater and the water temperature varied between 8 and 12° C. in the period. There were 34-35 fish in each vessel. Mean weight at start was 118 g. The control group consisted of three vessels, while each test group consisted of one vessel.
The feeds had the following main component composition: 43.5% protein; 27.7% fat; 7.8% water and 8.0% ash.
There was produced feed having three different levels of astaxanthin, 15, 30 and 45 mg astaxanthin/kg respectively, both of the control feeds and the test feeds, by that different amounts of Carophyll Pink were added to the meal mixture before extrusion.
Adding gallic acid into the meal mix to the same recipe as the control feeds provided the test feeds. Gallic acid was added in four levels to the test feeds, low, medium, high and very high, respectively. Low level corresponds to an inclusion level of between 10 and 75 ppm, represented in the examples with an inclusion level of 15 ppm, medium level corresponds to an inclusion level of between 76 and 750 ppm, represented in the examples with an inclusion level of 400 ppm, high level corresponds to an inclusion level of between 751 and 1500 ppm, represented in the example with an inclusion level of 1200 ppm, and very high level corresponds to an inclusion level of over 1500 ppm, represented in the example with an inclusion level of 3600 ppm.
At the termination of the test the fish weighed in average 557 g. SGR was between 0.84%/d and 0.89%/d. The fish were filleted and the fillets were analysed for chemical astaxanthin in duplicates of pooled samples of fillets. Astaxanthin was analysed with HPLC according to a method developed by Roche with modifications.

Structure (SMILES): CC1=C(/C=C/C(C)=C/C=C/C(C)=C/C=C/C=C(C)/C=C/C=C(C)/C=C/C2=C(C)C(=O)C(O)CC2(C)C)C(C)(C)CC(O)C1=O (stereo not drawn) [astaxanthin, 3,3′-dihydroxy β,β-carotene-4,4′-dion]
- chemical content of astaxanthin in the muscle at the end of the experiment (rainbow trout [1]): 6.57 ppm
- share of added astaxanthin in the feed deposited in the fish meat (rainbow trout [2]): up to 15%

Structure (SMILES): COc1cc(C=CC(=O)O)ccc1O [ferulic acid, 3-(4-hydroxy-3-metoxyphenol)prop-2-enoic acid]
- effect on the retention of astaxanthin (salmon (S. salar) [3]; low level of ferulic acid (15 ppm), feed contained less than 20 ppm of astaxanthin): favourable effect on the retention of astaxanthin
- effect on the retention of astaxanthin (salmon (S. salar) [3]; medium level of ferulic acid (400 ppm), feed contained more than 30 ppm of astaxanthin): favourable effect on the retention of astaxanthin
- increase in the level of astaxanthin in fish skin (sea bream; 1000 ppm ferulic acid): mild increase
- increase in the level of astaxanthin in fish skin (sea bream; only 100 ppm ferulic acid): no increase

Structure (SMILES): O=C(O)c1cc(O)c(O)c(O)c1 [gallic acid, 3,4,5-hydroxybenzoic acid]
- retention of astaxanthin versus control (salmon (S. salar) [4]; astaxanthin content in the feeds approx. 40 ppm): little difference in the retention
- retention of astaxanthin in fish muscle (salmon (S. salar) [4]; high inclusion levels of gallic acid in feed (751-1500 ppm, represented by 1200 ppm)): hamper the retention of astaxanthin
- effect on the retention of astaxanthin (salmon (S. salar) [4]; lowest inclusion level of gallic acid (15 ppm) compared with medium level (400 ppm)): equally good effect on the retention of astaxanthin as a medium level
- retention of astaxanthin in fish muscle (salmon (S. salar) [4]; very high level of gallic acid in feed (over 1500 ppm, represented by 3600 ppm)): worse retention than at the other tested levels

— patent publication US20120114823A1, “Feed Additive For Improved Pigment Retention” (TROUW INTERNATIONAL B.V., priority 2009, published 2012)
